Patent US9371294B2, “Cycloalkenyl aryl derivatives for CETP inhibitor” (CHONG KUN DANG PHARMACEUTICAL CORP., priority 2011, dated 2016)

Target: T1, cholesteryl ester transfer protein (Homo sapiens, UniProt P11597)
T1 construct: As a source of cholesteryl ester transfer protein, plasma from healthy humans was used; from tissue; host or cells: plasma from healthy humans
T1 sequence (P11597 18-493): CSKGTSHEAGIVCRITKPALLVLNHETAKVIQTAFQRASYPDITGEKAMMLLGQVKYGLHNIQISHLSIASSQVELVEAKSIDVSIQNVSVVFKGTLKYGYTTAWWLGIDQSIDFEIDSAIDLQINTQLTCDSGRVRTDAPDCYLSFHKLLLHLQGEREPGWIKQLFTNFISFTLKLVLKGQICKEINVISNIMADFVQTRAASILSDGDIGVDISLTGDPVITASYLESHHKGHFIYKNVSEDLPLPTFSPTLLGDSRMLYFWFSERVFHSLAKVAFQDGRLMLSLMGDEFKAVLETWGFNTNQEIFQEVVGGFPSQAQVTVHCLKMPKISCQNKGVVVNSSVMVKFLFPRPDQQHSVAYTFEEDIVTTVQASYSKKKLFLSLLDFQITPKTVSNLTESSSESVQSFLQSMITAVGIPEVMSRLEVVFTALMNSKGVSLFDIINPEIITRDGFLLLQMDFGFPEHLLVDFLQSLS
Test: In vitro test for the ability to inhibit cholesteryl ester transfer
Assay type: biochemical
Settings: [3H]-cholesteryl oleate transfer from rHDL-agarose to LDL; human plasma as CETP source; 37° C.; 16-10000 nM, duplicate
Text: In Vitro Test for the Ability to Inhibit Cholesteryl Ester Transfer
1. Preparation of Cholesteryl Ester Donor
In order to prepare a cholesteryl ester donor to be used in the test, a radiolabeled recombinant HDL containing [^3H]-cholesteryl oleate (GE healthcare, TRK886, 3.5 μCi/mg of apoA-1) and apoA-1 was synthesized. Then, rHDL-agarose obtained by immobilizing the recombinant HDL with CNBr-activated Sepharose 4B resin (Amersham Biosciences, Sweden) was used in the test.
2. Cholesteryl Ester Transfer Test
As a source of cholesteryl ester transfer protein, plasma from healthy humans was used, and as cholesteryl ester receptor, LDL from healthy humans was used. Each of test compounds was added to be final concentrations of 16, 80, 400, 2000 and 10000 nM and tested in duplicate. In order to test cholesteryl ester transfer, 20 μl of plasma, 50 μl of LDL (0.25 mg/ml) and 50 μl of rHDL-agarose (0.25 mg/ml) were mixed with each other, and a solution of each test compound was added thereto and reacted thereto at 37° C. Then, the reaction solution was centrifuged at 4° C. for 3 minutes, thereby the reaction was stopped. 150 μl of the supernatant was transferred into a 96-well plate for radioactivity measurement, and the radioactivity thereof was measured with a beta-ray detector.
3. Statistical Processing
The ratio of [^3H]-cholesteryl oleate transferred from HDL to LDL was determined, and based on the determined ratio, the IC50 value of each compound was determined using GraphPad Prism 5.0.

| IC50 [nM] | SMILES |
| --- | --- |
| 600 | COc1ccc(C(C)C)cc1C1=C(CN2C(=S)O[C@H](c3cc(C(F)(F)F)cc(C(F)(F)F)c3)[C@@H]2C)CC(C)(C)CC1 [Compound 15, (4S,5R)-5-(3,5-bis(trifluoromethyl)phenyl)-3-((2-(5-isopropyl-2-methoxyphenyl)-5,5-dimethylcyclohex-1-enyl)methyl)-4-methyloxazolidine-2-thione] |
| 510 | COc1cc(F)c(C(C)C)cc1C1=C(CN2C(=S)O[C@H](c3cc(C(F)(F)F)cc(C(F)(F)F)c3)[C@@H]2C)CC(C)(C)CC1 [Compound 17, (4S,5R)-5-(3,5-bis(trifluoromethyl)phenyl)-3-((2-(4-fluoro-5-isopropyl-2-methoxyphenyl)-5,5-dimethylcyclohex-1-enyl)methyl)-4-methyloxazolidine-2-thione] |
| 1360 | COc1ccccc1C1=C(CN2C(=O)O[C@H](c3cc(C(F)(F)F)cc(C(F)(F)F)c3)[C@@H]2C)CC(C)(C)CC1 [Compound 18, (4S,5R)-5-(3,5-bis(trifluoromethyl)phenyl)-3-((2-(2-methoxyphenyl)-5,5-dimethylcyclohex-1-enyl)methyl)-4-methyloxazolidin-2-one] |
| 920 | COc1cc(F)c(C(C)C)cc1C1=C(CN2C(=S)O[C@H](c3cc(C(F)(F)F)cc(C(F)(F)F)c3)[C@@H]2C)CC(C)CC1 (stereo partly drawn) [Compound 26, (4S,5R)-5-(3,5-bis(trifluoromethyl)phenyl)-3-((2-(4-fluoro-5-isopropyl-2-methoxyphenyl)-5-methylcyclohex-1-enyl)methyl)-4-methyloxazolidine-2-thione] |
| 240 | COc1cc(F)c(C(C)C)cc1C1=C(CN2C(=O)O[C@H](c3cc(C(F)(F)F)cc(C(F)(F)F)c3)[C@@H]2C)CCCC1 [Compound 27, (4S,5R)-5-(3,5-bis(trifluoromethyl)phenyl)-3-((2-(4-fluoro-5-isopropyl-2-methoxyphenyl)cyclohex-1-enyl)methyl)-4-methyloxazolidin-2-one] |
| 390 | COc1cc(F)c(C(C)C)cc1C1=C(CN2C(=S)O[C@H](c3cc(C(F)(F)F)cc(C(F)(F)F)c3)[C@@H]2C)CCCC1 [Compound 28, (4S,5R)-5-(3,5-bis(trifluoromethyl)phenyl)-3-((2-(4-fluoro-5-isopropyl-2-methoxyphenyl)cyclohex-1-enyl)methyl)-4-methyloxazolidine-2-thione] |
| 430 | COc1ccc(C(C)C)cc1C1=C(CN2C(=O)O[C@H](c3cc(C(F)(F)F)cc(C(F)(F)F)c3)[C@@H]2C)CCC(C)(C)C1 [Compound 44, (4S,5R)-5-(3,5-bis(trifluoromethyl)phenyl)-3-((2-(5-isopropyl-2-methoxyphenyl)-4,4-dimethylcyclohex-1-enyl)methyl)-4-methyloxazolidin-2-one] |
| 890 | COc1ccc(C=O)cc1C1=C(CN2C(=O)O[C@H](c3cc(C(F)(F)F)cc(C(F)(F)F)c3)[C@@H]2C)CCCC1 [Compound 79, 3-(2-(((4S,5R)-5-(3,5-bis(trifluoromethyl)phenyl)-4-methyl-2-oxooxazolidin-3-yl)methyl)cyclohex-1-enyl)-4-methoxybenzaldehyde] |
| 100 | COc1ccc(C(C)O)cc1C1=C(CN2C(=O)O[C@H](c3cc(C(F)(F)F)cc(C(F)(F)F)c3)[C@@H]2C)CCCC1 (stereo partly drawn) [Compound 80, (4S,5R)-5-(3,5-bis(trifluoromethyl)phenyl)-3-((2-(5-(1-hydroxyethyl)-2-methoxyphenyl)cyclohex-1-enyl)methyl)-4-methyloxazolidin-2-one] |
| 80 | COc1ccc(C(C)(C)O)cc1C1=C(CN2C(=O)O[C@H](c3cc(C(F)(F)F)cc(C(F)(F)F)c3)[C@@H]2C)CCCC1 [Compound 82, (4S,5R)-5-(3,5-bis(trifluoromethyl)phenyl)-3-((2-(5-(2-hydroxypropan-2-yl)-2-methoxyphenyl)cyclohex-1-enyl)methyl)-4-methyloxazolidin-2-one] |
| 110 | COc1ccc(N(C)C(=O)C(C)C)cc1C1=C(CN2C(=O)O[C@H](c3cc(C(F)(F)F)cc(C(F)(F)F)c3)[C@@H]2C)CCCC1 [Compound 86, N-(3-(2-(((4S,5R)-5-(3,5-bis(trifluoromethyl)phenyl)-4-methyl-2-oxooxazolidin-3-yl)methyl)cyclohex-1-enyl)-4-methoxyphenyl)-N-methylisobutyramide] |
| 70 | COc1cc(F)c(C(C)C)cc1C1=C(CN2C(=O)O[C@H](c3cc(C(F)(F)F)cc(C(F)(F)F)c3)[C@@H]2C)CC(C(C)(C)C)CC1 (stereo partly drawn) [Compound 101, (4S,5R)-5-(3,5-bis(trifluoromethyl)phenyl)-3-((5-tert-butyl-2-(4-fluoro-5-isopropyl-2-methoxyphenyl)cyclohex-1-enyl)methyl)-4-methyloxazolidin-2-one] |
| 30 | COc1ccc(C(C)O)cc1C1=C(CN2C(=O)O[C@H](c3cc(C(F)(F)F)cc(C(F)(F)F)c3)[C@@H]2C)CC(C)(C)CC1 (stereo partly drawn) [Compound 103, (4S,5R)-5-(3,5-bis(trifluoromethyl)phenyl)-3-((2-(5-(1-hydroxyethyl)-2-methoxyphenyl)-5,5-dimethylcyclohex-1-enyl)methyl)-4-methyloxazolidin-2-one] |
| 180 | COc1ccc(C(C)(C)O)cc1C1=C(CN2C(=O)O[C@H](c3cc(C(F)(F)F)cc(C(F)(F)F)c3)[C@@H]2C)CC(C)(C)CC1 [Compound 104, (4S,5R)-5-(3,5-bis(trifluoromethyl)phenyl)-3-((2-(5-(2-hydroxypropan-2-yl)-2-methoxyphenyl)-5,5-dimethylcyclohex-1-enyl)methyl)-4-methyloxazolidin-2-one] |
| 4 | COc1ccc(C(C)C)cc1C1=C(CN2C(=O)O[C@H](c3cc(C(F)(F)F)cc(C(F)(F)F)c3)[C@@H]2C)CC(C)(C)CC1 [Compound 107, (4S,5R)-5-(3,5-bis(trifluoromethyl)phenyl)-3-((2-(5-isopropyl-2-methoxyphenyl)-5,5-dimethylcyclohex-1-enyl)methyl)-4-methyloxazolidin-2-one] |
| 20 | COc1cc(F)c(C(C)C)cc1C1=C(CN2C(=O)O[C@H](c3cc(C(F)(F)F)cc(C(F)(F)F)c3)[C@@H]2C)CCC(C)(C)C1 [Compound 109, (4S,5R)-5-(3,5-bis(trifluoromethyl)phenyl)-3-((2-(4-fluoro-5-isopropyl-2-methoxyphenyl)-4,4-dimethylcyclohex-1-enyl)methyl)-4-methyloxazolidin-2-one] |
| 230 | COc1ccc(NC(C)=O)cc1C1=C(CN2C(=O)O[C@H](c3cc(C(F)(F)F)cc(C(F)(F)F)c3)[C@@H]2C)CC(C)(C)CC1 [Compound 110, N-(3-(2-(((4S,5R)-5-(3,5-bis(trifluoromethyl)phenyl)-4-methyl-2-oxooxazolidin-3-yl)methyl)-4,4-dimethylcyclohex-1-enyl)-4-methoxyphenyl)acetamide] |
| 80 | COc1ccc(OC(F)(F)F)cc1C1=C(CN2C(=O)O[C@H](c3cc(C(F)(F)F)cc(C(F)(F)F)c3)[C@@H]2C)CC(C)(C)CC1 [Compound 117, (4S,5R)-5-(3,5-bis(trifluoromethyl)phenyl)-3-((2-(2-methoxy-5-(trifluoromethoxy)phenyl)-5,5-dimethylcyclohex-1-enyl)methyl)-4-methyloxazolidin-2-one] |
| 20 | COc1cc(F)c(C(C)C)cc1C1=C(CN2C(=O)O[C@H](c3cc(C(F)(F)F)cc(C(F)(F)F)c3)[C@@H]2C)CC(F)(F)CC1 [Compound 123, (4S,5R)-5-(3,5-bis(trifluoromethyl)phenyl)-3-((5,5-difluoro-2-(4-fluoro-5-isopropyl-2-methoxyphenyl)cyclohex-1-enyl)methyl)-4-methyloxazolidin-2-one] |
| 20 | COC(=O)N(C)c1ccc(OC)c(C2=C(CN3C(=O)O[C@H](c4cc(C(F)(F)F)cc(C(F)(F)F)c4)[C@@H]3C)CC(C)(C)CC2)c1 [Compound 124, methyl 3-(2-(((4S,5R)-5-(3,5-bis(trifluoromethyl)phenyl)-4-methyl-2-oxooxazolidin-3-yl)methyl)-4,4-dimethylcyclohex-1-enyl)-4-methoxyphenyl(methyl)carbamate] |
| 60 | COc1ccc(N(C)S(C)(=O)=O)cc1C1=C(CN2C(=O)O[C@H](c3cc(C(F)(F)F)cc(C(F)(F)F)c3)[C@@H]2C)CC(C)(C)CC1 [Compound 128, N-(3-(2-(((4S,5R)-5-(3,5-bis(trifluoromethyl)phenyl)-4-methyl-2-oxooxazolidin-3-yl)methyl)-4,4-dimethylcyclohex-1-enyl)-4-methoxyphenyl)-N-methylmethanesulfonamide] |
